Series [1] can be described thus: Lipophilicity, log P of the compound. The series is classed as physicochemical. The following applies: octanol/water.
Series [2] deals with T1, DNA repair protein RAD51 homolog 1 (Homo sapiens) (UniProt Q06609).
T1 sequence (whole entry): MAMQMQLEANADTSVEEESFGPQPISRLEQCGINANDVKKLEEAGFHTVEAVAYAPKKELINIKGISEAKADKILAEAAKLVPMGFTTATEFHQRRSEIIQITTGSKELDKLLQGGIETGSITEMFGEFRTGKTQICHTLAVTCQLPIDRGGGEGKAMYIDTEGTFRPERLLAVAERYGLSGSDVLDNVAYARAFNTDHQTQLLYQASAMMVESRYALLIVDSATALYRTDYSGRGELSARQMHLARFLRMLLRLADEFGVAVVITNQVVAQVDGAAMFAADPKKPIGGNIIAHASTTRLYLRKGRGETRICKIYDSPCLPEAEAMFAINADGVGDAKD
Nature of the series: Inhibition of human RAD51 in HEK-GFP cells assessed as reduction in double-strand breaks-induced homologous recombination at 5 to 20 uM by chromosomally integrated DR-GFP reporter gene assay. The series is classed as cell-based. On the technique in general: A reporter such as luciferase makes a cellular process visible.

Series [3] addresses T1, DNA repair protein RAD51 homolog 1 (Homo sapiens). Put plainly: Inhibition of human RAD51-mediated DNA strand exchange at 5 to 20 uM using pBSK (+) gapped and linear dsDNA substrates by joint molecule formation assay.
Series [4] has as its system HEK-GFP. Put plainly: Effect on I-SceI expression in HEK-GFP cells by Western blotting. The format is functional, cell-based. The following applies: Homo sapiens. For orientation: A western blot detects proteins with antibodies after separation by electrophoresis.
Series [5] addresses T1, DNA repair protein RAD51 homolog 1 (Homo sapiens). The following applies: 20 uM.
Description: Inhibition of human RAD51-ssDNA filament formation at 20 uM added to free RAD51 prior to filament formation by D-loop formation assay
The target is the same in series [6]. The following applies: 25 uM.
Description: Inhibition of ssDNA binding to human RAD51 assessed as reduction in RAD51-90-mer ssDNA complex formation at 25 uM by EMSA method
For series [7], the target named is T2, Protein RecA (Escherichia coli K-12) (UniProt P0A7G6).
T2 sequence (whole entry): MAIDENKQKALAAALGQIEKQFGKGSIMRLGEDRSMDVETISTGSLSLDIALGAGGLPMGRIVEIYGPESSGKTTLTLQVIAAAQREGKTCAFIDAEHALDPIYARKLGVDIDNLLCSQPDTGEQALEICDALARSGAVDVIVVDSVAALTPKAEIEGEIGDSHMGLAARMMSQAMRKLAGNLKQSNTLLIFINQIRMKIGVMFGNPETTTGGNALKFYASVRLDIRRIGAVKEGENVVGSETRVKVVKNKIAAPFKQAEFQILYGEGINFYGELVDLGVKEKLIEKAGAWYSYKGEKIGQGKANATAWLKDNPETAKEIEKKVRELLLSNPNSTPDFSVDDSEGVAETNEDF
Put plainly: Inhibition of Escherichia coli RecA-mediated DNA branch migration at 10 to 100 microM using [32P]-labeled 5'-joint molecules after 8 hrs by branch migration assay.

In series [8] the target is T3, DNA repair protein RAD51 homolog 1 (Mus musculus) (UniProt Q08297).
T3 sequence (whole entry): T1 sequence (whole entry) with N10S, F46Y, A76T, A194G
The following applies: MEF, 5 uM.
Description: Inhibition of RAD51 in Tp53-/- MEF cells assessed as potentiation of 1 uM MMC-induced cytotoxicity at 5 uM incubated for 1 hr by clonogenic survival assay relative to untreated control

Series [9] addresses T2, Protein RecA (Escherichia coli K-12). Nature of the series: Binding affinity to Escherichia coli RecA at 50 microM by SPR method. On the technique in general: In SPR one partner is held on a chip, and binding of the other changes the refractive index at the surface.
Series [10] concerns the target T1, DNA repair protein RAD51 homolog 1 (Homo sapiens). The following applies: HEK293, 5 uM.
Description: Inhibition of RAD51 in HEK cells assessed as potentiation of cisplatin-induced cytotoxicity at 5 uM in presence of RAD51 siRNA transfected 40 hrs before compound and cisplatin addition by clonogenic survival assay relative to untreated control
Series [11] has the same target. To be noted: HEK293, 5 uM. The source holds these as a separate data set.
Description: Inhibition of RAD51 in HEK cells assessed as potentiation of cisplatin-induced cytotoxicity at 5 uM in presence of RAD51 siRNA transfected 40 hrs before compound and cisplatin exposure for 10 to 12 hrs by clonogenic survival assay relative to untreated control
Series [12] deals with HEK-GFP. Put plainly: Effect on RAD51 expression in HEK-GFP cells by Western blotting. The format is functional, cell-based. The following applies: Homo sapiens.
Series [13] concerns HEK-GFP. Nature of the series: Effect on GFP expression in HEK-GFP cells transfected with pMX-GFP plasmid by Western blotting. The format is functional, cell-based. To be noted: Homo sapiens.
Series [14] has as its target T1, DNA repair protein RAD51 homolog 1 (Homo sapiens). The following applies: 25 uM. The source holds these as a separate data set.
Description: Inhibition of human RAD51 ATPase activity at 25 uM by ATP hydrolysis assay
Series [15] shares this target. To be noted: 200 uM.
Description: Inhibition of human RAD51 oligomerization at 200 uM by gel filtration method
Series [16] concerns MEF. Nature of the series: Toxicity in Tp53-/- MEF cells assessed as cell viability at 5 uM by incubated for 1 hr by clonogenic survival assay. The format is cell-based. The following applies: mouse.
The target in series [17] is T3, DNA repair protein RAD51 homolog 1 (Mus musculus). The following applies: MEF, 5 uM. This is another data set of the same source.
Description: Inhibition of RAD51 in MEF cells assessed as potentiation of MMC-induced cytotoxicity at 5 uM incubated for 1 hr in presence of 0.01 uM PARP1 inhibitor AZD2281 by clonogenic survival assay relative to untreated control
Series [18] concerns MEF. Put plainly: Toxicity in MEF cells assessed as cell viability at 5 uM by incubated for 1 hr by clonogenic survival assay. The format is cell-based. The following applies: mouse.
In series [19] the target is T3, DNA repair protein RAD51 homolog 1 (Mus musculus). To be noted: MEF, 5 uM. The source holds these as a separate data set.
Description: Inhibition of RAD51 in Tp53-/- MEF cells assessed as potentiation of 32 uM cisplatin-induced cytotoxicity at 5 uM incubated for 1 hr by clonogenic survival assay relative to untreated control
Series [20] concerns the target T1, DNA repair protein RAD51 homolog 1 (Homo sapiens). To be noted: HEK293, 5 uM. The source holds these as a separate data set.
Description: Inhibition of RAD51 in HEK cells assessed as potentiation of cisplatin-induced cytotoxicity at 5 uM in presence of RAD51 siRNA transfected 40 hrs before compound and cisplatin exposure for 16 hrs by clonogenic survival assay relative to untreated control
The target is the same in series [21]. The following applies: HEK293, 25 uM.
Description: Inhibition of DNA binding to human RAD51 in irradiated HEK cells assessed as reduction in RAD51 foci formation at 25 uM by fluorescence microscopy relative to untreated control
Series [22] concerns the target T3, DNA repair protein RAD51 homolog 1 (Mus musculus). The following applies: MEF, 5 uM. The source holds these as a separate data set.
Description: Inhibition of RAD51 in MEF cells assessed as potentiation of MMC-induced cytotoxicity at 5 uM incubated for 1 hr by clonogenic survival assay relative to untreated control
For series [23], the target named is T1, DNA repair protein RAD51 homolog 1 (Homo sapiens). The following applies: 20 uM. The source holds these as a separate data set.
Description: Inhibition of dsDNA binding to human RAD51-ssDNA filament assessed as reduction in coaggregation formation at 20 uM in presence of 50 mM NaCl by dsDNA coaggregation assay
Series [24] addresses T2, Protein RecA (Escherichia coli K-12). Nature of the series: Inhibition of Escherichia coli RecA-mediated DNA strand exchange at 10 to 100 microM using pBSK (+) gapped and linear dsDNA substrates by joint molecule formation assay.

Residue numbers refer to the chain shown, from its start. Active and inactive are the calls of the source. The rule behind the calls is not given here.

In general, logP refers to a log measure of how a compound divides between an organic and an aqueous phase. Low values mean lower lipophilicity, high ones higher lipophilicity.

The compound `Cc1cc2nc3c(nc2cc1C)[C@@]1(C(=O)O)CCC3(C)C1(C)C` returned a logP in [1] of 3.7. The inhibition result in [2] and in series [3] was “inactive” in each case.

Consider `O=c1c2ccccc2nc(/C=C/c2cccnc2)n1Cc1ccccc1`, for which the outcome (in the series with HEK-GFP [4]; in series [9]; with HEK-GFP [12]; in the series on HEK-GFP [13]) was inactive. The logP in series [1] turned out to be 3.7. Moreover, the inhibition result in series [5], in series [6], in series [8], in [10], in [11] and in [14] was “Active” each time. For the same compound, the inhibition result in series [17], in [19], in [20], in [21] and in series [23] was “Active” throughout. Besides, the inhibition entry in series [7], in [15], in series [22] and in series [24] was “inactive” in each case. For the same compound, the Activity result in the series with MEF [16] and with MEF [18] was “Non-toxic” in each case.

These data come from ChEMBL document CHEMBL2034898, “Inhibition of homologous recombination in human cells by targeting RAD51 recombinase” (J Med Chem, 2012).
